Key:
Experiment in all cases: relative viability (nuclei count vs DMSO), 5 days (fraction); higher = more cells survive
Dinaciclib + Dasatinib = compound: CCc1cnn2c(NCc3ccc[n+]([O-])c3)cc(N3CCCC[C@H]3CCO)nc12 [Dinaciclib] + Cc1nc(Nc2ncc(C(=O)Nc3c(C)cccc3Cl)s2)cc(N2CCN(CCO)CC2)n1 [Dasatinib] (partner 0.075 µM)
Method in brief: (§1)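 Each reported value is a median over duplicate plates. It expresses relative viability: treated-well nuclei count divided by vehicle-well nuclei count. Lung cancer cell lines in 1536-well plates were dosed by pin tool a day after seeding, alone with one drug or with a fixed anchor-drug dose plus five library-drug doses (not always all listed) in √10 steps, and nuclei were counted after 5 days.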

Dinaciclib + Tozasertib = compound: CCc1cnn2c(NCc3ccc[n+]([O-])c3)cc(N3CCCC[C@H]3CCO)nc12 [Dinaciclib] + Cc1cc(Nc2cc(N3CCN(C)CC3)nc(Sc3ccc(NC(=O)C4CC4)cc3)n2)n[nH]1 [Tozasertib] (partner 0.1 µM)
Method in brief: as §1

Dinaciclib + Phenformin = compound: CCc1cnn2c(NCc3ccc[n+]([O-])c3)cc(N3CCCC[C@H]3CCO)nc12 [Dinaciclib] + N=C(N)NC(=N)NCCc1ccccc1 [Phenformin] (partner 250 µM)
Method in brief: as §1

Dinaciclib + OSI-027 = compound: CCc1cnn2c(NCc3ccc[n+]([O-])c3)cc(N3CCCC[C@H]3CCO)nc12 [Dinaciclib] + COc1cccc2cc(-c3nc([C@H]4CC[C@H](C(=O)O)CC4)n4ncnc(N)c34)[nH]c12 [OSI-027] (partner 0.5 µM)
Method in brief: as §1

Dinaciclib + Foretinib = compound: CCc1cnn2c(NCc3ccc[n+]([O-])c3)cc(N3CCCC[C@H]3CCO)nc12 [Dinaciclib] + COc1cc2c(Oc3ccc(NC(=O)C4(C(=O)Nc5ccc(F)cc5)CC4)cc3F)ccnc2cc1OCCCN1CCOCC1 [Foretinib] (partner 0.25 µM)
Method in brief: as §1

Dinaciclib + Luminespib = compound: CCc1cnn2c(NCc3ccc[n+]([O-])c3)cc(N3CCCC[C@H]3CCO)nc12 [Dinaciclib] + CCNC(=O)c1noc(-c2cc(C(C)C)c(O)cc2O)c1-c1ccc(CN2CCOCC2)cc1 [Luminespib] (partner 0.01 µM)
Method in brief: as §1

Dinaciclib = compound: CCc1cnn2c(NCc3ccc[n+]([O-])c3)cc(N3CCCC[C@H]3CCO)nc12 [Dinaciclib]
Method in brief: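 Viability is treated-well nuclei as a fraction of vehicle-well nuclei, reported as the median across plates. Before counting, lung cancer cell lines were kept overnight at 37 °C in 1536-well plates, pinned with five √10-spaced library-drug doses on vehicle-anchored plates, and left 5 days without medium change, then fixed, permeabilised and Hoechst-stained in one step, imaged at 4× and counted by MetaXpress. A plate passed only if control CV was below 25% and at least one doubling occurred.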

Dinaciclib + AZD7762 = compound: CCc1cnn2c(NCc3ccc[n+]([O-])c3)cc(N3CCCC[C@H]3CCO)nc12 [Dinaciclib] + NC(=O)Nc1cc(-c2cccc(F)c2)sc1C(=O)N[C@H]1CCCNC1 [AZD7762] (partner 0.2 µM)
Method in brief: as §1

Dinaciclib + Pemetrexed = compound: CCc1cnn2c(NCc3ccc[n+]([O-])c3)cc(N3CCCC[C@H]3CCO)nc12 [Dinaciclib] + Nc1nc2[nH]cc(CCc3ccc(C(=O)N[C@@H](CCC(=O)O)C(=O)O)cc3)c2c(=O)[nH]1 [Pemetrexed] (partner 0.2 µM)
Method in brief: as §1

Dinaciclib + Palbociclib = compound: CCc1cnn2c(NCc3ccc[n+]([O-])c3)cc(N3CCCC[C@H]3CCO)nc12 [Dinaciclib] + CC(=O)c1c(C)c2cnc(Nc3ccc(N4CCNCC4)cn3)nc2n(C2CCCC2)c1=O [Palbociclib] (partner 0.5 µM)
Method in brief: as §1

Dinaciclib + Trametinib = compound: CCc1cnn2c(NCc3ccc[n+]([O-])c3)cc(N3CCCC[C@H]3CCO)nc12 [Dinaciclib] + CC(=O)Nc1cccc(-n2c(=O)n(C3CC3)c(=O)c3c(Nc4ccc(I)cc4F)n(C)c(=O)c(C)c32)c1 [Trametinib] (partner 0.02 µM)
Method in brief: as §1

Dinaciclib + Olaparib = compound: CCc1cnn2c(NCc3ccc[n+]([O-])c3)cc(N3CCCC[C@H]3CCO)nc12 [Dinaciclib] + O=C(c1cc(Cc2n[nH]c(=O)c3ccccc23)ccc1F)N1CCN(C(=O)C2CC2)CC1 [Olaparib] (partner 8 µM)
Method in brief: as §1

Dinaciclib + Decitabine = compound: CCc1cnn2c(NCc3ccc[n+]([O-])c3)cc(N3CCCC[C@H]3CCO)nc12 [Dinaciclib] + Nc1ncn([C@H]2C[C@H](O)[C@@H](CO)O2)c(=O)n1 [Decitabine] (partner 2 µM)
Method in brief: as §1

Dinaciclib + Vorinostat = compound: CCc1cnn2c(NCc3ccc[n+]([O-])c3)cc(N3CCCC[C@H]3CCO)nc12 [Dinaciclib] + O=C(CCCCCCC(=O)Nc1ccccc1)NO [Vorinostat] (partner 1 µM)
Method in brief: as §1

## NCI-H1623
Dinaciclib + Dasatinib; first compound 0.009487 µM
  relative viability: 0.518
Dinaciclib + Dasatinib; first compound 0.03 µM
  relative viability: 0.36
Dinaciclib + Dasatinib; first compound 0.09487 µM
  relative viability: 0.207
Dinaciclib + Dasatinib; first compound 0.3 µM
  relative viability: 0.231
Dinaciclib + Tozasertib; first compound 0.009487 µM
  relative viability: 0.437
Dinaciclib + Tozasertib; first compound 0.03 µM
  relative viability: 0.249
Dinaciclib + Tozasertib; first compound 0.09487 µM
  relative viability: 0.207
Dinaciclib + Tozasertib; first compound 0.3 µM
  relative viability: 0.193
Dinaciclib + Phenformin; first compound 0.009487 µM
  relative viability: 0.609
Dinaciclib + Phenformin; first compound 0.03 µM
  relative viability: 0.259
Dinaciclib + Phenformin; first compound 0.09487 µM
  relative viability: 0.213
Dinaciclib + Phenformin; first compound 0.3 µM
  relative viability: 0.225
Dinaciclib + OSI-027; first compound 0.009487 µM
  relative viability: 0.397
Dinaciclib + OSI-027; first compound 0.03 µM
  relative viability: 0.236
Dinaciclib + OSI-027; first compound 0.09487 µM
  relative viability: 0.231
Dinaciclib + OSI-027; first compound 0.3 µM
  relative viability: 0.2
Dinaciclib + Foretinib; first compound 0.009487 µM
  relative viability: 0.831
Dinaciclib + Foretinib; first compound 0.03 µM
  relative viability: 0.273
Dinaciclib + Foretinib; first compound 0.09487 µM
  relative viability: 0.235
Dinaciclib + Foretinib; first compound 0.3 µM
  relative viability: 0.234
Dinaciclib + Luminespib; first compound 0.009487 µM
  relative viability: 0.428
Dinaciclib + Luminespib; first compound 0.03 µM
  relative viability: 0.262
Dinaciclib + Luminespib; first compound 0.09487 µM
  relative viability: 0.132
Dinaciclib + Luminespib; first compound 0.3 µM
  relative viability: 0.144
Dinaciclib; 0.009487 µM
  relative viability: 1.02
Dinaciclib; 0.03 µM
  relative viability: 0.332
Dinaciclib; 0.09487 µM
  relative viability: 0.26
Dinaciclib; 0.3 µM
  relative viability: 0.196

## NCI-H1648
Dinaciclib + AZD7762; first compound 0.009487 µM
  relative viability: 0.85
Dinaciclib + AZD7762; first compound 0.03 µM
  relative viability: 0.577
Dinaciclib + AZD7762; first compound 0.09487 µM
  relative viability: 0.266
Dinaciclib + AZD7762; first compound 0.3 µM
  relative viability: 0.24
Dinaciclib + Tozasertib; first compound 0.009487 µM
  relative viability: 0.503
Dinaciclib + Tozasertib; first compound 0.03 µM
  relative viability: 0.274
Dinaciclib + Tozasertib; first compound 0.09487 µM
  relative viability: 0.166
Dinaciclib + Tozasertib; first compound 0.3 µM
  relative viability: 0.207
Dinaciclib + Pemetrexed; first compound 0.009487 µM
  relative viability: 0.644
Dinaciclib + Pemetrexed; first compound 0.03 µM
  relative viability: 0.677
Dinaciclib + Pemetrexed; first compound 0.09487 µM
  relative viability: 0.25
Dinaciclib + Pemetrexed; first compound 0.3 µM
  relative viability: 0.199
Dinaciclib + OSI-027; first compound 0.009487 µM
  relative viability: 0.263
Dinaciclib + OSI-027; first compound 0.03 µM
  relative viability: 0.259
Dinaciclib + OSI-027; first compound 0.09487 µM
  relative viability: 0.265
Dinaciclib + OSI-027; first compound 0.3 µM
  relative viability: 0.212
Dinaciclib + Palbociclib; first compound 0.009487 µM
  relative viability: 0.227
Dinaciclib + Palbociclib; first compound 0.03 µM
  relative viability: 0.223
Dinaciclib + Palbociclib; first compound 0.09487 µM
  relative viability: 0.265
Dinaciclib + Palbociclib; first compound 0.3 µM
  relative viability: 0.224
Dinaciclib + Trametinib; first compound 0.009487 µM
  relative viability: 0.49
Dinaciclib + Trametinib; first compound 0.03 µM
  relative viability: 0.346
Dinaciclib + Trametinib; first compound 0.09487 µM
  relative viability: 0.241
Dinaciclib + Trametinib; first compound 0.3 µM
  relative viability: 0.264
Dinaciclib + Olaparib; first compound 0.009487 µM
  relative viability: 0.521
Dinaciclib + Olaparib; first compound 0.03 µM
  relative viability: 0.387
Dinaciclib + Olaparib; first compound 0.09487 µM
  relative viability: 0.234
Dinaciclib + Olaparib; first compound 0.3 µM
  relative viability: 0.219
Dinaciclib + Decitabine; first compound 0.009487 µM
  relative viability: 0.468
Dinaciclib + Decitabine; first compound 0.03 µM
  relative viability: 0.218
Dinaciclib + Decitabine; first compound 0.09487 µM
  relative viability: 0.231
Dinaciclib + Decitabine; first compound 0.3 µM
  relative viability: 0.217
Dinaciclib + Vorinostat; first compound 0.009487 µM
  relative viability: 0.275
Dinaciclib + Vorinostat; first compound 0.03 µM
  relative viability: 0.434
Dinaciclib + Vorinostat; first compound 0.09487 µM
  relative viability: 0.294
Dinaciclib + Vorinostat; first compound 0.3 µM
  relative viability: 0.262
Dinaciclib; 0.009487 µM
  relative viability: 0.788
Dinaciclib; 0.03 µM
  relative viability: 0.301
Dinaciclib; 0.09487 µM
  relative viability: 0.247
Dinaciclib; 0.3 µM
  relative viability: 0.29

Source: the supplement of paper PMC10307832
